Data as given in patent publication US20200247794A1, “PHARMACOPHORES, COMPOUNDS AND METHODS HAVING APPLICATION IN THE TREATMENT OF CANCER THROUGH INHIBITION OF CYP17A1 AND CYP19A1” (MANGOSUTHU UNIVERSITY OF TECHNOLOGY, priority 2015, published 2020).

Key:
[1] = test system: CYP1A2, CYP2C9, CYP2C19, CYP2D6, and CYP3A4; assay: CYP inhibition against major 5 human liver CYPs (panel, summary in words); type: in vitro ADME; settings: drug-drug interaction remark
[2] = target: T1, CYP2C19 (Homo sapiens, UniProt P33261); assay: CYP inhibition, 5 CYP bactosome mix: CYP2C19 ((S)-mephenytoin); type: in vitro ADME; settings: (S)-mephenytoin 40 μM
T1 construct: purchased Cypex, Dundee CYP/XG001, Batch XG001001; host or cells: E. coli
Source text: (§1) CYP Inhibition Against Major 5 Human Liver CYPs in E. coli CYPEX Membranes
The final DMSO concentration was 1%.

[3] = Toxicity studies
[4] = Solubility in DMSO; type: physicochemical
[5] = target: T2, CYP3A4 (Homo sapiens, UniProt P08684); assay: CYP inhibition, 5 CYP bactosome mix: CYP3A4 (midazolam); type: in vitro ADME; settings: midazolam 2.5 μM
T2 construct: purchased Cypex, Dundee CYP/XG001, Batch XG001001; host or cells: E. coli
Source text: as §1
The final DMSO concentration was 1%.

[6] = target: T3, CYP1A2 (Homo sapiens, UniProt P05177); assay: CYP inhibition, 5 CYP bactosome mix: CYP1A2 (tacrine); type: in vitro ADME; settings: tacrine 0.5 μM
T3 construct: purchased Cypex, Dundee CYP/XG001, Batch XG001001; host or cells: E. coli
T3 sequence (P05177 1-516): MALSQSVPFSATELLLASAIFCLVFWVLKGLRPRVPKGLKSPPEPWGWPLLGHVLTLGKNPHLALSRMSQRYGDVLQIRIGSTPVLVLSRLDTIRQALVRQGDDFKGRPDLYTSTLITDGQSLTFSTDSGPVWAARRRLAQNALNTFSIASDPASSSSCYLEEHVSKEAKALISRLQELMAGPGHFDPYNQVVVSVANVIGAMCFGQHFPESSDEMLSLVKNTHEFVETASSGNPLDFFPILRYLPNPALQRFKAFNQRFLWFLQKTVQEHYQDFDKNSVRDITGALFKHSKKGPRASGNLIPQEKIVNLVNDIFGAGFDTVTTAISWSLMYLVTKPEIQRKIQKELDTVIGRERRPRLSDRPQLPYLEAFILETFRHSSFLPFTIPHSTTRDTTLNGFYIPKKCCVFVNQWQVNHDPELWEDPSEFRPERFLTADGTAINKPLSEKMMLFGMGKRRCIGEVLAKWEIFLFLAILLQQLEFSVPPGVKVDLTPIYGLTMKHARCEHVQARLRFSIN
Source text: as §1
The final DMSO concentration was 1%.

[7] = target: T4, CYP17A1 (Homo sapiens, UniProt P05093); assay: CYP17A1 inhibition (CYP17A1 bactosomes, progesterone substrate, LC-MS/MS); type: biochemical; set-up: purchased Cypex, Dundee, UK; host or cells: bacterial membranes (bactosomes)
T4 sequence (P05093 1-508): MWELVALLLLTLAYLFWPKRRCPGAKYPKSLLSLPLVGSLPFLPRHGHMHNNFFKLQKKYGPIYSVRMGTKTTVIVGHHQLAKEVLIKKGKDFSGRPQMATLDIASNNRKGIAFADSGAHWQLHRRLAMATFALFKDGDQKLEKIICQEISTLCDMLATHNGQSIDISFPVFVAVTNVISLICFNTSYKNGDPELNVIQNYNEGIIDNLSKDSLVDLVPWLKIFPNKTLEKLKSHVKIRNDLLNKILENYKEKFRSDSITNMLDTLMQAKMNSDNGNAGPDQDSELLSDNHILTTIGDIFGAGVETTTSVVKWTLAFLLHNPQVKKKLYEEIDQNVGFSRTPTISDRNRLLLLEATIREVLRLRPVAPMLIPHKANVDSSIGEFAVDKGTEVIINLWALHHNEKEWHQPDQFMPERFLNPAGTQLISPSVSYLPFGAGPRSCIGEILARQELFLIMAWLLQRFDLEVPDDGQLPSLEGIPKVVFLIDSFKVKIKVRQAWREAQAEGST
Procedure: CYP17A1 inhibition was measured using 20 pmol/ml CYP17A1 bactosomes (Cypex, Dundee, UK) and 0.1 μM progesterone as a substrate and 1 mM NADPH in 50 mM potassium phosphate buffer pH 7.4 containing 5 mM magnesium chloride. Inhibitors were dissolved in DMSO and serially diluted in seven ½ log steps, final concentrations ranging from 50 μM to 50 nM. Reaction volume was 100 μl and final DMSO concentration was 1% (v/v). Reactions were started by the addition of NADPH and incubated at 37° C. for 20 minutes with shaking at 1800 rpm on a Bioshake IQ (Q-Instruments, Jena, Germany). Reactions were terminated by the addition of 200 μl methanol containing 1 μM tolbutamide as an internal standard.

[8] = target: T5, CYP2D6 (Homo sapiens, UniProt P10635); assay: CYP inhibition, 5 CYP bactosome mix: CYP2D6 (bufuralol); type: in vitro ADME; settings: bufuralol 10 μM
T5 construct: purchased Cypex, Dundee CYP/XG001, Batch XG001001; host or cells: E. coli
T5 sequence (P10635 whole entry): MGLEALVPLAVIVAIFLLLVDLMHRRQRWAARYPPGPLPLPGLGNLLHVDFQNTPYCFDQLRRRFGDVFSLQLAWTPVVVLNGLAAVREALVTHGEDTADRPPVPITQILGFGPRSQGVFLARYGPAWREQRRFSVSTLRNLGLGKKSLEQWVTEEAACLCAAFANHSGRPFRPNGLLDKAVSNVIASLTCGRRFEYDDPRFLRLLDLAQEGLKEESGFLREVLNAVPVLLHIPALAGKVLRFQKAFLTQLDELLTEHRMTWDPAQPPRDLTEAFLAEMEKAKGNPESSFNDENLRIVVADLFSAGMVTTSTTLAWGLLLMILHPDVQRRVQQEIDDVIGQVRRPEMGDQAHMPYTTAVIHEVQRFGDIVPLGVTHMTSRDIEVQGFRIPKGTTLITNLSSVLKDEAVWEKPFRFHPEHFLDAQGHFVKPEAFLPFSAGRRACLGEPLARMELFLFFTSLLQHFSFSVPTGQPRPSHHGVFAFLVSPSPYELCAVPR
Source text: as §1
The final DMSO concentration was 1%.

T1 sequence (P33261 whole entry): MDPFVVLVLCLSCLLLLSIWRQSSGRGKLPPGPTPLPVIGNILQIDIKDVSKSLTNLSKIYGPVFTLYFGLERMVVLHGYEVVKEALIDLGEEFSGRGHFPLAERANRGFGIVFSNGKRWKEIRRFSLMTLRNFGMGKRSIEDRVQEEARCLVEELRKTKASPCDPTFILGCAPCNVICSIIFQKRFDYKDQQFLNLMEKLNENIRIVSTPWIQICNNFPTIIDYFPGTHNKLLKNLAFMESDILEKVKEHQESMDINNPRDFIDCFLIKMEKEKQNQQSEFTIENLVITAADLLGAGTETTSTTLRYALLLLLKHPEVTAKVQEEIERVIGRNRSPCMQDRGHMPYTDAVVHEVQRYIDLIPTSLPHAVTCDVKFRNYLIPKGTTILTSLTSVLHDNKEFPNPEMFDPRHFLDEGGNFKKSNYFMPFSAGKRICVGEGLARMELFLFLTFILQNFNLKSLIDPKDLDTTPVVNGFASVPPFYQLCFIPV
T2 sequence (P08684 whole entry): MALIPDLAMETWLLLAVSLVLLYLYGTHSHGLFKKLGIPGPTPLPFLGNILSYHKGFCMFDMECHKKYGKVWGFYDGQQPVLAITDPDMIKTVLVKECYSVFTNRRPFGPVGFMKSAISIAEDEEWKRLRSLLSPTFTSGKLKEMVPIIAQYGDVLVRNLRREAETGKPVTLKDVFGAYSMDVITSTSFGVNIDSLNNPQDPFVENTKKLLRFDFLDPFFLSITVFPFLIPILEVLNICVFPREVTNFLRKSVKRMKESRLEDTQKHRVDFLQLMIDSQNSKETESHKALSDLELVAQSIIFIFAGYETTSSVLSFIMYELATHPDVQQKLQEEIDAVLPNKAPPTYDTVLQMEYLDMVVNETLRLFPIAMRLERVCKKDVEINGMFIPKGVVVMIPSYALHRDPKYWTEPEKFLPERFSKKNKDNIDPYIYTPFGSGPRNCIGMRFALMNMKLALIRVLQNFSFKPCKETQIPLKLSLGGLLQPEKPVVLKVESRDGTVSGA

inhibition of metabolic CYP450 isoforms (in words) [1]: inhibit various CYP450 isoforms
IC50 [2]: 8.3 µM
Soluble in DMSO [4]: Yes
IC50 [5]: 2.7 µM
IC50 [6]: 12.6 µM
IC50 ([7]; 20 pmol/ml bactosomes, 0.1 μM progesterone, 50 μM to 50 nM): > 34.1 µM
inhibitory potency of CYP17A1 (in words) ([7]; summary of Table 2): micromolar levels
IC50 [8]: 15 µM
SMILES: Cc1nc(SC(C(=O)c2c[nH]c3ccccc23)c2ccccc2)sc1CC(N)=O (racemic) [Compound 3, 2-(2-{[2-(1H-indol-3-yl)-2-oxo-1-phenylethyl]sulfanyl}-4-methyl-1,3-thiazol-5-yl)acetamide]
safety profile [3]: reasonably good safety profiles
